Assay results published in patent US20100298141A1, “SUBSTITUTED PYRIDINE N-OXIDE HERBICIDES” (E. I. DU PONT DE NEMOURS AND COMPANY, priority 2007, published 2010).

Columns and labels:
duck salad = test: Test C flooded paddy test; type: in vivo, Heteranthera limosa; settings: Flood
Description: (§1) At time of treatment, test pots were flooded to 3 cm above the soil surface, treated by application of test compounds directly to the paddy water, and then maintained at that water depth for the duration of the test. Treated plants and controls were maintained in a greenhouse for 13 to 15 days, after which time all species were compared to controls and visually evaluated. […] A dash (-) response means no test result.

rice = test: Test C flooded paddy test; type: in vivo, Oryza sativa; settings: Flood
Description: as §1

giant foxtail = test: Test A pre-/postemergence greenhouse test; type: in vivo, Setaria faberi; settings: for Plant response rating, Foxtail, Giant: 0 to 100 scale where 0 is no effect and 100 is complete control; for Foxtail, Giant plant response rating: 0 to 100 scale
Procedure, shortened: (§2)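 Visual injury ratings, made relative to untreated controls roughly ten days after treatment, cover both preemergence and postemergence application. Compounds in a surfactant-containing non-phytotoxic solvent were sprayed onto the soil surface after sowing and, simultaneously, onto young plants at the one- to two-leaf stage.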

wheat = test: Test A pre-/postemergence greenhouse test; type: in vivo, Triticum aestivum; settings: for Plant response rating, Wheat: 0 to 100 scale where 0 is no effect and 100 is complete control; for Wheat plant response rating: 0 to 100 scale
Procedure, shortened: as §2

velvetleaf = test: Test A pre-/postemergence greenhouse test; type: in vivo, Abutilon theophrasti; settings: for Plant response rating, Velvetleaf: 0 to 100 scale where 0 is no effect and 100 is complete control; for Velvetleaf plant response rating: 0 to 100 scale
Procedure, shortened: as §2

redroot pigweed = test: Test A pre-/postemergence greenhouse test; type: in vivo, Amaranthus retroflexus; settings: for Plant response rating, Pigweed: 0 to 100 scale where 0 is no effect and 100 is complete control; for Pigweed plant response rating: 0 to 100 scale
Procedure, shortened: as §2

umbrella sedge = test: Test C flooded paddy test; type: in vivo, Cyperus difformis; settings: Flood
Description: as §1

morningglory = test: Test A pre-/postemergence greenhouse test; type: in vivo, Ipomoea spp.; settings: for Plant response rating, Morningglory: 0 to 100 scale where 0 is no effect and 100 is complete control; for Morningglory plant response rating: 0 to 100 scale
Procedure, shortened: as §2

corn = test: Test A pre-/postemergence greenhouse test; type: in vivo, Zea mays; settings: for Plant response rating, Corn: 0 to 100 scale where 0 is no effect and 100 is complete control; for Corn plant response rating: 0 to 100 scale
Procedure, shortened: as §2

barnyardgrass [1] = test: Test C flooded paddy test; type: in vivo, Echinochloa crus-galli; settings: Flood
Description: as §1

crabgrass = test: Test A pre-/postemergence greenhouse test; type: in vivo, Digitaria sanguinalis; settings: for Plant response rating, Crabgrass, Large: 0 to 100 scale where 0 is no effect and 100 is complete control; for Crabgrass, Large plant response rating: 0 to 100 scale
Procedure, shortened: as §2

barnyardgrass [2] = test: Test A pre-/postemergence greenhouse test; type: in vivo, Echinochloa crus-galli; settings: for Plant response rating, Barnyardgrass: 0 to 100 scale where 0 is no effect and 100 is complete control; for Barnyardgrass plant response rating: 0 to 100 scale
Procedure, shortened: as §2

[3] = 31 g ai/ha, scale 0 to 100 (0 no effect, 100 complete control)
[4] = 62 g ai/ha, scale 0 to 100 (0 no effect, 100 complete control)
[5] = 125 g ai/ha, scale 0 to 100, 0 no effect, 100 complete control, 13 to 15 days
[6] = 250 g ai/ha, scale 0 to 100, 0 no effect, 100 complete control, 13 to 15 days
[7] = Postemergence, 500 g ai/ha, 0 is no effect, 100 is complete control
[8] = Preemergence, 125 g ai/ha, 0 no effect, 100 complete control
[9] = Preemergence, 500 g ai/ha, 0 no effect, 100 complete control
[10] = 62 g ai/ha, scale 0 to 100, 0 no effect, 100 complete control, 13 to 15 days
[11] = Postemergence, 125 g ai/ha, 0 is no effect, 100 is complete control

Cn1nc(C(F)(F)F)c(CS(=O)(=O)c2ccc(F)c[n+]2[O-])c1OC(F)F [Compound 107]
90: Foxtail, Giant plant response rating (giant foxtail; [9]) | Barnyardgrass plant response rating (barnyardgrass [2]; [9])
70: Plant response rating, Foxtail, Giant (giant foxtail; Postemergence, 125 g ai/ha) | Plant response rating, Crabgrass, Large (crabgrass; Postemergence, 125 g ai/ha) | Barnyardgrass plant response rating (barnyardgrass [2]; [8])
80: Foxtail, Giant plant response rating (giant foxtail; [7]) | Crabgrass, Large plant response rating (crabgrass; [7]) | Crabgrass, Large plant response rating (crabgrass; [9])
50: Pigweed plant response rating (redroot pigweed; [7]) | Morningglory plant response rating (morningglory; [7])
20: Plant response rating, Sedge, Umbrella (umbrella sedge; [6]) | Plant response rating, Barnyardgrass (barnyardgrass [1]; [5])
10: Velvetleaf plant response rating (velvetleaf; [9])
65: Plant response rating, Ducksalad (duck salad; [6])
40: Plant response rating, Pigweed (redroot pigweed; Postemergence, 125 g ai/ha) | Pigweed plant response rating (redroot pigweed; [8]) | Plant response rating, Barnyardgrass (barnyardgrass [1]; [6]) | Plant response rating, Barnyardgrass (barnyardgrass [2]; Postemergence, 125 g ai/ha)
0: Plant response rating, Ducksalad (duck salad; [3]) | Plant response rating, Ducksalad (duck salad; [4]) | Plant response rating, Ducksalad (duck salad; [5]) | Plant response rating, Rice (rice; [3]) | Plant response rating, Rice (rice; [4]) | Plant response rating, Rice (rice; [5]) | Plant response rating, Rice (rice; [6]) | Plant response rating, Wheat (wheat; Postemergence, 125 g ai/ha) | Wheat plant response rating (wheat; [7]) | Wheat plant response rating (wheat; [8]) | Wheat plant response rating (wheat; [9]) | Plant response rating, Velvetleaf (velvetleaf; Postemergence, 125 g ai/ha) | Velvetleaf plant response rating (velvetleaf; [7]) | Velvetleaf plant response rating (velvetleaf; [8]) | Plant response rating, Sedge, Umbrella (umbrella sedge; [3]) | Plant response rating, Sedge, Umbrella (umbrella sedge; [4]) | Plant response rating, Sedge, Umbrella (umbrella sedge; [5]) | Plant response rating, Morningglory (morningglory; Postemergence, 125 g ai/ha) | Morningglory plant response rating (morningglory; [8]) | Plant response rating, Corn (corn; Postemergence, 125 g ai/ha) | Corn plant response rating (corn; [7]) | Corn plant response rating (corn; [8]) | Corn plant response rating (corn; [9]) | Plant response rating, Barnyardgrass (barnyardgrass [1]; [3]) | Plant response rating, Barnyardgrass (barnyardgrass [1]; [4])
60: Foxtail, Giant plant response rating (giant foxtail; [8]) | Pigweed plant response rating (redroot pigweed; [9]) | Morningglory plant response rating (morningglory; [9]) | Crabgrass, Large plant response rating (crabgrass; [8]) | Barnyardgrass plant response rating (barnyardgrass [2]; [7])

Cn1nc(C(F)(F)F)c(CS(=O)(=O)c2cc(Br)cc[n+]2[O-])c1Cl [Compound 32]
30: Plant response rating, Wheat (wheat; Preemergence, 500 g ai/ha) | Barnyardgrass plant response rating (barnyardgrass [2]; [7])
20: Plant response rating, Corn (corn; Preemergence, 500 g ai/ha)
70: Plant response rating, Foxtail, Giant (giant foxtail; Preemergence, 500 g ai/ha)
60: Plant response rating, Barnyardgrass (barnyardgrass [2]; Preemergence, 500 g ai/ha)
100: Plant response rating, Pigweed (redroot pigweed; Preemergence, 500 g ai/ha)
0: Plant response rating, Ducksalad (duck salad; [3]) | Plant response rating, Ducksalad (duck salad; [10]) | Plant response rating, Ducksalad (duck salad; [5]) | Plant response rating, Rice (rice; [3]) | Plant response rating, Rice (rice; [10]) | Plant response rating, Rice (rice; [5]) | Plant response rating, Rice (rice; [6]) | Foxtail, Giant plant response rating (giant foxtail; [11]) | Foxtail, Giant plant response rating (giant foxtail; [7]) | Foxtail, Giant plant response rating (giant foxtail; [8]) | Wheat plant response rating (wheat; [11]) | Wheat plant response rating (wheat; [7]) | Wheat plant response rating (wheat; [8]) | Velvetleaf plant response rating (velvetleaf; [11]) | Velvetleaf plant response rating (velvetleaf; [7]) | Velvetleaf plant response rating (velvetleaf; [8]) | Plant response rating, Velvetleaf (velvetleaf; Preemergence, 500 g ai/ha) | Pigweed plant response rating (redroot pigweed; [11]) | Pigweed plant response rating (redroot pigweed; [7]) | Pigweed plant response rating (redroot pigweed; [8]) | Plant response rating, Sedge, Umbrella (umbrella sedge; [3]) | Plant response rating, Sedge, Umbrella (umbrella sedge; [10]) | Plant response rating, Sedge, Umbrella (umbrella sedge; [5]) | Morningglory plant response rating (morningglory; [11]) | Morningglory plant response rating (morningglory; [8]) | Plant response rating, Morningglory (morningglory; Preemergence, 500 g ai/ha) | Corn plant response rating (corn; [11]) | Corn plant response rating (corn; [7]) | Corn plant response rating (corn; [8]) | Plant response rating, Barnyardgrass (barnyardgrass [1]; [3]) | Plant response rating, Barnyardgrass (barnyardgrass [1]; [10]) | Plant response rating, Barnyardgrass (barnyardgrass [1]; [5]) | Plant response rating, Barnyardgrass (barnyardgrass [1]; [6]) | Crabgrass, Large plant response rating (crabgrass; [11]) | Crabgrass, Large plant response rating (crabgrass; [7]) | Crabgrass, Large plant response rating (crabgrass; [8]) | Plant response rating, Crabgrass, Large (crabgrass; Preemergence, 500 g ai/ha) | Barnyardgrass plant response rating (barnyardgrass [2]; [11]) | Barnyardgrass plant response rating (barnyardgrass [2]; [8])
10: Morningglory plant response rating (morningglory; [7])
50: Plant response rating, Ducksalad (duck salad; [6]) | Plant response rating, Sedge, Umbrella (umbrella sedge; [6])
